From US20120015906A1, “USES OF BORTEZOMIB IN PREDICTING SURVIVAL IN MULTIPLE MYELOMA PATIENTS” (priority 2009, published 2012)

Columns and labels:
Format in all cases: in vivo, human
[1] = test system: CD138-purified plasma cells; test: Gene expression profiling of plasma cells prior to and 48 hr after bortezomib test-dose; conditions: for Mean log2 Expression Change / Mean log2 Expression Change, Average: 48 hr after test-dose vs baseline
Protocol: Pharmacogenomic (PG) studies were performed as part of two TT3 trials (2003-33, n=303; 2006-66, n=177), obtaining plasma cells prior to and 48 hr after a bortezomib test-dose (1.0 mg/m2), which was accomplished in 142 patients receiving 2003-33 (training set) and […] receiving 2006-66 (test set). […] A continuous risk score was calculated and an optimal cut-point for event-free survival separation determined. The independent prognostic power of the binary risk score was tested in 2006-66. Multivariate analyses (MV) were employed to determine the role of post-bortezomib risk in relationship to standard prognostic variables and 70-gene baseline risk model.
The details of Total Therapy 3 are known in the art. In brief, protocol 2003-33 enrolled 303 newly diagnosed patients with myeloma into a tandem transplantation program, employing 2 cycles each of induction chemotherapy with VTD-PACE (bortezomib, thalidomide, dexamethasone; 4-day continuous infusions of cisplatin, doxorubicine, cyclophosphamide, etoposide) prior to and after melphalan-based transplantation, followed by VTD maintenance. A pharmaco-genomic aspect of the protocol called for gene expression profiling analyses of CD138-purified plasma cells obtained prior to and 48 hr following a test-dose application of bortezomib (1.0 mg/m2). The observation of prognostic consequences of bortezomib-induced gene expression profiling alterations provided the rationale for accrual of an additional 177 patients to an extension TT3 protocol, 2006-66, in order to validate the pharmaco-genomic data generated in the 2003-33 trial. Gene expression profiling baseline data were available in 275 and 169 patients entered on 2003-33 and 2006-66, respectively, 142 and 128 of whom had paired samples at baseline and 48 hr after test-dosing.
Multiple myeloma plasma cells were purified from bone marrow aspirates prior to and 48 hr following in vivo exposure to 1.0 mg/m2 of bortezomib in 142 of 303 patients enrolled in UARK2003-33 and 128 of 177 accrued to UARK2006-66. RNA was isolated from tumor cells and run on Affymetrix U133Plus2.0 microarrays. Multiple myeloma plasma cells were isolated from heparinized bone marrow (BM) aspirates using CD138-based immunomagnetic bead selection using the Miltenyi AutoMacs device (Miltenyi, Bergisch Gladbach, Germany). Peripheral Blood mononuclear cells were obtained through Ficoll gradient centrifugation. RNA purification, cDNA synthesis, cRNA preparation, and hybridization to the Human Genome U133Plus 2.0 GeneChip microarrays (Affymetrix, Santa Clara, Calif.) were performed.
The Affymetrix U133Plus2.0 microarrays were preprocessed and normalized with MAS5.0 software. […] Each of these 1051 genes was then correlated with event-free survival in a Cox regression model and ranked the genes by p-values. In order to explore the various potential survival implications, two sets of covariates were considered in the Cox model for each gene: a) percent change at 48 hr compared to the baseline expression, and b) 48 hr expression.

proteasome genes = test: Proteasome gene expression changes after short-term exposure (test-dosing) to bortezomib, dexamethasone, thalidomide, melphalan; conditions: test-dosing in myeloma patients
Excerpt: In earlier studies, pharmacogenomics was used to identify genes altered by short-term exposure of therapy-naïve cases to thalidomide and dexamethasone. Little to no overlap was found in the genes altered by these agents with those altered by bortezomib.

proteasome proteins = test: Mass spectrometry of proteasome proteins after bortezomib; conditions: mass spectroscopy, protein level
Excerpt: Representative examples of proteasome up-regulation after bortezomib at both the RNA and protein levels are depicted.
For further validation of GEP-derived data, the effects of bortezomib on proteasome proteins was also investigated by mass spectroscopy, (FIG. 8A). Representative examples of proteasome up-regulation after bortezomib at both the RNA and protein levels are depicted in FIG. 8A-8B.

CC(C)C[C@H](NC(=O)[C@H](Cc1ccccc1)NC(=O)c1cnccn1)B(O)O [bortezomib]
Mean log2 Expression Change ([1]; ACVR1C 1552519_at): −0.17 | Mean log2 Expression Change ([1]; ALDOA 238996_x_at): 0.36 | Mean log2 Expression Change ([1]; ANKRD37 242548_x_at): −0.39 | Mean log2 Expression Change ([1]; BIRC5 210334_x_at): −0.35 | Mean log2 Expression Change ([1]; C1orf31 225638_at): 0.18 | Mean log2 Expression Change ([1]; C1orf128 229856_s_at): −0.32 | Mean log2 Expression Change ([1]; C9orf130 227893_at): 0.16 | Mean log2 Expression Change ([1]; C14orf100 223215_s_at): 0.12 | Mean log2 Expression Change ([1]; C17orf60 217513_at): 0.32 | Mean log2 Expression Change ([1]; CHORDC1 218566_s_at): 0.15 | Mean log2 Expression Change ([1]; CISH 221223_x_at): −0.20 | Mean log2 Expression Change ([1]; CISH 223377_x_at): −0.18 | Mean log2 Expression Change ([1]; CISH 223961_s_at): −0.32 | Mean log2 Expression Change ([1]; COMMD8 218351_at): 0.16 | Mean log2 Expression Change ([1]; COPS5 201652_at): 0.12 | Mean log2 Expression Change ([1]; COX6C 201754_at): 0.12 | Mean log2 Expression Change ([1]; CRYGS 223643_at): −0.18 | Mean log2 Expression Change ([1]; ENSA 202596_at): 0.12 | Mean log2 Expression Change ([1]; FLNA 214752_x_at): 0.18 | Mean log2 Expression Change ([1]; FOSB 202768_at): −0.54 | Mean log2 Expression Change ([1]; FUNDC1 235346_at): 0.13 | Mean log2 Expression Change ([1]; GABARAPL1 208869_s_at): 0.20 | Mean log2 Expression Change ([1]; HIST1H3B 208576_s_at): 0.40 | Mean log2 Expression Change ([1]; HNRPC 200014_s_at): 0.11 | Mean log2 Expression Change ([1]; HNRPC 212626_x_at): 0.16 | Mean log2 Expression Change ([1]; K1AA1394 228984_at): −0.29 | Mean log2 Expression Change ([1]; K1AA1754 225582_at): −0.14 | Mean log2 Expression Change ([1]; KLHL7 223250_at): 0.09 | Mean log2 Expression Change ([1]; LAP3 217933_s_at): 0.15 | Mean log2 Expression Change ([1]; LAPTM4A 200673_at): 0.12 | Mean log2 Expression Change ([1]; LOC400657 226924_at): 0.11 | Mean log2 Expression Change ([1]; LOC643318 1557633_at): −0.29 | Mean log2 Expression Change ([1]; LOC644250 230292_at): −0.34 | Mean log2 Expression Change ([1]; LZTR2 1564423_a_at): −0.23 | Mean log2 Expression Change ([1]; MGC61598 226499_at): −0.29 | Mean log2 Expression Change ([1]; MRPL47 223480_s_at): 0.09 | Mean log2 Expression Change ([1]; NMT1 201157_s_at): 0.12 | Mean log2 Expression Change ([1]; NOLA1 219110_at): 0.11 | Mean log2 Expression Change ([1]; NR4A1 202340_x_at): −0.79 | Mean log2 Expression Change ([1]; NXT2 209628_at): 0.13 | Mean log2 Expression Change ([1]; PDE4B 203708_at): −0.25 | Mean log2 Expression Change ([1]; PDE4B 211302_s_at): −0.28 | Mean log2 Expression Change ([1]; PDE4B 215671_at): −0.42 | Mean log2 Expression Change ([1]; PSMA4 203396_at): 0.14 | Mean log2 Expression Change ([1]; PSMA7 201114_x_at): 0.21 | Mean log2 Expression Change ([1]; PSMB2 200039_s_at): 0.17 | Mean log2 Expression Change ([1]; PSMB3 201400_at): 0.13 | Mean log2 Expression Change ([1]; PSMB4 202243_s_at): 0.19 | Mean log2 Expression Change ([1]; PSMB4 202244_at): 0.15 | Mean log2 Expression Change ([1]; PSMB7 200786_at): 0.15 | Mean log2 Expression Change ([1]; PSMC4 201252_at): 0.16 | Mean log2 Expression Change ([1]; PSMC5 209503_s_at): 0.17 | Mean log2 Expression Change ([1]; PSMD2 200830_at): 0.13 | Mean log2 Expression Change ([1]; PSMD4 200882_s_at): 0.19 | Mean log2 Expression Change ([1]; PSMD4 210460_s_at): 0.19 | Mean log2 Expression Change ([1]; PSMD4 211609_x_at): 0.20 | Mean log2 Expression Change ([1]; PSMD14 212296_at): 0.23 | Mean log2 Expression Change ([1]; RBM33 238801_at): −0.26 | Mean log2 Expression Change ([1]; RPL41 216215_s_at): −0.16 | Mean log2 Expression Change ([1]; SLC25A14 204587_at): −0.10 | Mean log2 Expression Change ([1]; SNRPD1 202690_s_at): 0.11 | Mean log2 Expression Change ([1]; STAU2 229417_at): 0.22 | Mean log2 Expression Change ([1]; STAU2 233909_at): −0.40 | Mean log2 Expression Change ([1]; STX11 235670_at): −0.14 | Mean log2 Expression Change ([1]; SUMO1 211069_s_at): 0.10 | Mean log2 Expression Change ([1]; TAGAP 1552542_s_at): −0.19 | Mean log2 Expression Change ([1]; TBC1D9 212960_at): −0.19 | Mean log2 Expression Change ([1]; TMC8 236554_x_at): 0.24 | Mean log2 Expression Change ([1]; TUBA6 209251_x_at): 0.12 | Mean log2 Expression Change ([1]; UBPH 205687_at): 0.16 | Mean log2 Expression Change ([1]; WIRE 212050_at): −0.10 | Mean log2 Expression Change ([1]; ZNF710 213658_at): −0.12 | Mean log2 Expression Change, Average ([1]; average of the Bad Genes): 0.13 | Mean log2 Expression Change, Average ([1]; average of the Good Genes): −0.16 | average expression decrease of the good genes from baseline to post-bortezomib ([1]; high-risk group): 1.22 fold | average expression increase of the bad genes from baseline to post-bortezomib ([1]; high-risk group): 1.21 fold | average expression decrease of the good genes from baseline to post-bortezomib ([1]; low-risk group): 1.09 fold | average expression increase of the bad genes from baseline to post-bortezomib ([1]; low-risk group): 1.07 fold | Mean log2 Expression Change ([1]; probeset 226399_at (no gene symbol)): 0.09 | Mean log2 Expression Change ([1]; probeset 227524_at (no gene symbol)): −0.17 | Mean log2 Expression Change ([1]; probeset 229388_at (no gene symbol)): 0.22 | Mean log2 Expression Change ([1]; probeset 236986_at (no gene symbol)): −0.13 | Mean log2 Expression Change ([1]; probeset 239082_at (no gene symbol)): −0.11 | Mean log2 Expression Change ([1]; probeset 239343_at (chr12q23.3, no gene symbol)): 0.19 | Mean log2 Expression Change ([1]; probeset 1561060_at (no gene symbol)): −0.27 | proteasome gene expression change after short-term exposure (proteasome genes): hyper-activation of proteasome genes | proteasome proteins after bortezomib (proteasome proteins): up-regulation
